From patent US8217176B2, “Fused heterocyclic derivative and use thereof” (Takeda Pharmaceutical Company Limited, priority 2008, dated 2012)
pIC50: −log10 of the molar value.

Assays:
[1] = system: NIH-3T3/Gli reporter cells; experiment: Evaluation of compound: Shh-N-induced luciferase activity in NIH-3T3/Gli reporter cells (Smo inhibitory action); format: cell-based; conditions: 48 hr; for inhibition at 1 µM: NIH3T3, 1 μM compound, mouse Shh-N end fragment supernatant, read-out: inhibition rate (%) at 1 μM
Method in brief: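 Compound added with Shh-N-containing HEK293 supernatant (D-MEM, 2% FBS) to stably transfected 8×Gli-luciferase NIH-3T3 cells, 48 hr at 37° C. Luciferase read by Bright-Glo luminescence. Inhibition relative to no-compound control as 100; IC50 from concentration–inhibition curve as concentration giving 50% of maximal inhibition.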

[2] = system: mouse medulloblastoma allogeneic transplantation model; experiment: In vivo anti-tumor test, mouse medulloblastoma allogeneic transplantation model; conditions: 6.25 mg/kg orally twice a day for 2 weeks; nude mouse, subcutaneous medulloblastoma from Patched 1(+/-), p53(-/-) mouse; end of administration
Protocol: According to the description in Sasaki, K. et al., (2006) Cancer Res. 66: 4215-4222, an anti-tumor effect of a compound was evaluated using a mouse medulloblastoma allogeneic transplantation model. To be precise, Patched 1 gene mutant mouse (lineage name: Ptch1tm1Mps/J) was purchased from The Jackson Laboratory and p53 gene mutant mouse (lineage name: P53N4-M, Nomenclature: B6.129-Trp53tm/BrdN4) was purchased from Taconic, and a mouse of Patched 1(+/−), p53(−/−) phenotype was prepared by mating. The tumor tissue of medulloblastoma spontaneously occurred in the cerebellum of 7- to 9-week-old Patched 1(+/−), p53(−/−) mouse was taken and subcutaneously transplanted into a nude mouse (lineage name: CAnN.Cg-Foxn1/CrlCrlj).
An anti-tumor test was performed using a tumor passaged by subcutaneous transplantation. A tumor mass was isolated by a 40 μm cell strainer (BD Biosciences, Cat. No. 352340), a tumor suspension was prepared with Leibovitz's L-15 medium (GIBCO, Cat. No. 11415-114) in a 2-fold amount relative to the tumor mass weight, mixed with an equivalent amount of matrigel (BD Biosciences, Cat. No. 356237), and subcutaneously transplanted to a mouse at […] per transplantation site. The tumor diameter after transplantation was measured and, when the tumor size reached 150-250 mm^3, the anti-tumor test was started using 5 mice per group.
The test compound was prepared to achieve a dose of 6.25 mg/kg with a 0.5% methylcellulose (Shin-Etsu Chemical Co., Ltd., Cat. No. SM-100) suspension, and orally administered twice a day for 2 weeks. The tumor size was calculated based on the longer diameter and shorter diameter of the tumor measured with an electron vernier caliper. After the start of the test, the tumor size was measured every 2 or 3 days and the growth rate of the tumor size was calculated. A tumor growth inhibitory effect of 95% or above was confirmed in each test compound administration group.
The tumor growth rate and the results of a significant difference test by the administration of each test compound are shown in the Table. The growth rate of the tumor size (T/C) was calculated according to: growth rate (T/C)=((tumor size of compound administration group at the end of administration)−(tumor size of compound administration group at the start of administration))/((tumor size of control group at the end of administration)−(tumor size of control group at the start of administration))×100.

SMILES	inhibition at 1 µM [1]	pIC50 ([1]; NIH3T3, mouse Shh-N end fragment supernatant, read-out: IC50 value (compound concentration necessary for achieving 50% of the maximum value of inhibition rate))	T/C (%) growth rate of the tumor size [2]
COc1c(C(=O)NC2CCN(CCO)CC2)n(C)c2c1c(=O)n(CC(=O)c1ccccc1)c1ccccc21 [Example 79, N-[1-(2-hydroxyethyl)piperidin-4-yl]-3-methoxy-1-methyl-4-oxo-5-(2-oxo-2-phenylethyl)-4,5-dihydro-1H-pyrrolo[3,2-c]quinoline-2-carboxamide]	100%	≥ 6.00	0.8%
COc1c(C(=O)NC2CCN(C(=O)CO)CC2)n(C)c2c1c(=O)n(CC(=O)c1ccccc1)c1ccccc21 [Example 124, N-[1-(hydroxyacetyl)piperidin-4-yl]-3-methoxy-1-methyl-4-oxo-5-(2-oxo-2-phenylethyl)-4,5-dihydro-1H-pyrrolo[3,2-c]quinoline-2-carboxamide]	100%		2.0%
CCOc1c(C(=O)NC2CCN(C(=O)CO)CC2)n(C)c2cc(CC)n(CC(=O)c3ccccc3)c(=O)c12 [Example 139, 3-ethoxy-6-ethyl-N-[1-(hydroxyacetyl)piperidin-4-yl]-1-methyl-4-oxo-5-(2-oxo-2-phenylethyl)-4,5-dihydro-1H-pyrrolo[3,2-c]pyridine-2-carboxamide]	100%		0.4%
Cc1cc2c(c(OCC(F)(F)F)c(C(=O)NC3CCN(C(=O)CO)CC3)n2C)c(=O)n1CC(=O)c1ccccc1 [Example 140, N-[1-(hydroxyacetyl)piperidin-4-yl]-1,6-dimethyl-4-oxo-5-(2-oxo-2-phenylethyl)-3-(2,2,2-trifluoroethoxy)-4,5-dihydro-1H-pyrrolo[3,2-c]pyridine-2-carboxamide]	100%		5.3%
CCc1cc2c(c(OCC(F)(F)F)c(C(=O)NC3CCN(C(=O)CO)CC3)n2C)c(=O)n1CC(=O)c1ccccc1 [Example 143, 6-ethyl-N-[1-(hydroxyacetyl)piperidin-4-yl]-1-methyl-4-oxo-5-(2-oxo-2-phenylethyl)-3-(2,2,2-trifluoroethoxy)-4,5-dihydro-1H-pyrrolo[3,2-c]pyridine-2-carboxamide]	100%		0.0%
